This note sets out measurements from PMC12029836, “Phytotoxicity, Cytotoxicity, and Antimicrobial Activity of Triethanolammonium Amino Acids Salts” (Molecules, 2025).

The test system of one assay is L929 fibroblasts. Briefly: Mammalian cell cytotoxicity screening, resazurin viability. The class given is cell-based, mouse.
The test system of assay [1] is Lepidium sativum L. seeds. To be noted: 24 h incubation, mean(±SD), n = 3.
Assay [2] has as its system Lepidium sativum L. roots. The conditions noted are these: 24 h incubation, mean(±SD), n = 3.
The mark [3] stands for this setting: 0.01% (w/w) compound in the medium.
[4] abbreviates: 0.03% (w/w) compound in the medium.
Where [5] appears, read: 0.05% (w/w) compound in the medium.
[6] abbreviates: 0.10% (w/w) compound in the medium.
Setting [7] is: 0.30% (w/w) compound in the medium.
Where [8] appears, read: 0.50% (w/w) compound in the medium.
The mark [9] stands for this setting: 1.00% (w/w) compound in the medium.
Where [10] appears, read: 2.00% (w/w) compound in the medium.
The mark [11] stands for this setting: 3.00% (w/w) compound in the medium.
Setting [12] is: 4.00% (w/w) compound in the medium.
[13] abbreviates: 5.00% (w/w) compound in the medium.

Several values for one entry are separate records, joined by “and”; a condition that tells them apart may be missing. Equal entries are not always repeated. Where two headings read alike, the source gives them in different places.

For `CC(C)C[C@H](N)C(=O)O.OCCN(CCO)CCO` [[TEA][Leu]], the ED20 is given as 0.23±0.02% with L929 fibroblasts (24h exposure) and 0.21±0.01% in the assay with L929 fibroblasts (48h exposure). Also, the ED50 in the assay on L929 fibroblasts (24h exposure) is listed as 0.51±0.22%; with L929 fibroblasts (48h exposure) it was 0.51±0.01%. Also, the ED80 with L929 fibroblasts (24h exposure) is 0.93±0.07%; with L929 fibroblasts (48h exposure) it was 0.82±0.03%. For the same compound, the “Inhibition of the Lepidium sativum seeds germination (ISG, %)” value (“Inhibition … (ISG, %)” for short) is listed as 0.0(±1.9) % in assay [1] (setting [3]); 0.0(±1.9) % in assay [1] (setting [4]); 5.7(±0.5) % in assay [1] (setting [5]); 6.6(±0.9) % in assay [1] (setting [6]); 7.5(±2.1) % in assay [1] (setting [7]); 11.3(±0.8) % in assay [1] (setting [8]). Moreover, the “Inhibition … (ISG, %)” value in assay [1] (setting [9]) is given as 15.1(±1.6) %; in assay [1] (setting [10]) it was 32.1(±0.1) %; in assay [1] (setting [11]), 58.5%; in assay [1] (setting [12]), 84.9(±2.5) %; in assay [1] (setting [13]), 100(±0.1) %. In addition, the “Inhibition of the root growth in pregerminated Lepidium sativum seeds (IRG, %)” value (shortened to “Inhibition of the root growth … (IRG, %)”) in assay [2] (setting [3]) is 0.0(±0.0) %; in assay [2] (setting [4]), 8.9(±2.5) %; in assay [2] (setting [5]), 10.5(±2.1) %; in assay [2] (setting [6]) it was 20.3(±1.7) %; in assay [2] (setting [7]), 30.0(±1.9) %; in assay [2] (setting [8]), 39.9(±1.5) %. The “Inhibition of the root growth … (IRG, %)” value in assay [2] (setting [9]) is listed as 53.0(±1.0) %; in assay [2] (setting [10]), 67.9(±0.9) %; in assay [2] (setting [11]), 71.6(±0.8) %; in assay [2] (setting [12]) it was 88.7(±0.7) %; in assay [2] (setting [13]), 94.7(±0.5) %.

For the compound `N[C@@H](Cc1ccccc1)C(=O)O.OCCN(CCO)CCO` [[TEA][Phe]], the ED20 is given as 0.37±0.04% in the assay on L929 fibroblasts (24h exposure) and 0.38±0.04% with L929 fibroblasts (48h exposure). Further, the ED50 in the assay with L929 fibroblasts (24h exposure) is 0.72±0.07% and 0.72%; with L929 fibroblasts (48h exposure), 0.63±0.04%. In addition, the ED80 is reported as 1.20±0.19% in the assay on L929 fibroblasts (24h exposure) and 0.91±0.14% in the assay on L929 fibroblasts (48h exposure). The “Inhibition … (ISG, %)” value in assay [1] (setting [3]) was 0.0(±0.0) %; in assay [1] (setting [4]), 0.0(±0.0) %; in assay [1] (setting [5]) it was 0.9(±0.8) %; in assay [1] (setting [6]) it was 1.8(±0.9) %; in assay [1] (setting [7]), 3.5(±1.7) %; in assay [1] (setting [8]), 5.3(±0.8) %. Moreover, the “Inhibition … (ISG, %)” value in assay [1] (setting [9]) is on record as 8.8(±1.3) %; in assay [1] (setting [10]), 10.5(±0.8) %; in assay [1] (setting [12]), 22.8(±2.4) %; in assay [1] (setting [13]), 86.0(±2.1) %. Besides, the “Inhibition of the root growth … (IRG, %)” value in assay [2] (setting [3]) is 23.6%; in assay [2] (setting [4]), 24.4(±2.0) %; in assay [2] (setting [5]) it was 28.5(±2.0) %; in assay [2] (setting [6]), 44.2(±1.6) %; in assay [2] (setting [7]), 48.1(±1.7) %; in assay [2] (setting [8]), 53.1(±1.3) %. The “Inhibition of the root growth … (IRG, %)” value in assay [2] (setting [9]) is 60.2(±1.4) %; in assay [2] (setting [10]), 69.6(±1.1) %; in assay [2] (setting [11]), 78.3(±0.9) %; in assay [2] (setting [12]) it was 83.5(±0.9) %; in assay [2] (setting [13]), 92.1(±0.6) %.

On to `NC(=O)CCC(N)C(=O)O.OCCN(CCO)CCO` (centres unmarked) [[TEA][Gln]], for which the “Inhibition … (ISG, %)” value in assay [1] (setting [3]) is 0.0(±0.0) %; in assay [1] (setting [4]), 0.0(±0.0) %; in assay [1] (setting [5]), 0.0(±0.0) %; in assay [1] (setting [6]), 1.7(±2.2) %; in assay [1] (setting [7]), 9.2(±1.3) %; in assay [1] (setting [8]), 15.0(±0.5) %. Besides, the “Inhibition … (ISG, %)” value was 20.8(±2.6) % in assay [1] (setting [9]), 38.1(±2.1) % in assay [1] (setting [10]), 53.8(±2.5) % in assay [1] (setting [11]) and 86.7(±1.3) % in assay [1] (setting [12]). Moreover, the “Inhibition of the root growth … (IRG, %)” value is given as 13.0(±2.0) % in assay [2] (setting [3]); 20.7(±1.8) % in assay [2] (setting [4]); 21.0(±2.2) % in assay [2] (setting [5]); 26.9(±1.8) % in assay [2] (setting [6]); 50.5% in assay [2] (setting [7]); 63.6(±1.3) % in assay [2] (setting [8]). Besides, the “Inhibition of the root growth … (IRG, %)” value in assay [2] (setting [9]) is recorded as 72.9(±0.9) %; in assay [2] (setting [10]), 78.1(±1.0) %; in assay [2] (setting [11]) it was 85.2(±0.9) %; in assay [2] (setting [12]), 92.4(±0.5) %; in assay [2] (setting [13]) it was 93.6(±0.5) %.

In the case of `NCC(=O)O.OCCN(CCO)CCO` [[TEA][Gly]], the “Inhibition … (ISG, %)” value in assay [1] (setting [3]) was 0.0(±0.5) %; in assay [1] (setting [4]), 0.0(±0.5) %; in assay [1] (setting [5]), 1.7 (±1.2) %; in assay [1] (setting [6]), 3.4 (±1.3) %; in assay [1] (setting [7]), 6.9 (±0.8) %; in assay [1] (setting [8]), 13.8(±2.6) %. The “Inhibition … (ISG, %)” value in assay [1] (setting [9]) is given as 20.7(±3.1) %; in assay [1] (setting [11]), 63.8%; in assay [1] (setting [12]) it was 81.0(±1.7) %; in assay [1] (setting [13]), 87.9(±0.9) %. Also, the “Inhibition of the root growth … (IRG, %)” value in assay [2] (setting [3]) is reported as 8.7%; in assay [2] (setting [4]), 16.2(±1.8) %; in assay [2] (setting [5]) it was 20.9(±2.0) %; in assay [2] (setting [6]), 20.6(±1.7) %; in assay [2] (setting [7]), 49.3(±1.3) %; in assay [2] (setting [8]), 62.3(±1.3) %. The “Inhibition of the root growth … (IRG, %)” value in assay [2] (setting [9]) is 75.7(±0.7) %; in assay [2] (setting [10]), 80.6(±0.6) %; in assay [2] (setting [11]), 93.3(±0.5) %; in assay [2] (setting [12]), 96.2(±0.4) %; in assay [2] (setting [13]), 95.9(±0.4) %.

Regarding `CC(C)[C@H](N)C(=O)O.OCCN(CCO)CCO` [[TEA][Val]], the “Inhibition … (ISG, %)” value in assay [1] (setting [3]) is 0.0(±0.9) %; in assay [1] (setting [4]) it was 0.0(±1.7) %; in assay [1] (setting [5]), 0.0(±1.2) %; in assay [1] (setting [6]), 0.0(±1.2) %; in assay [1] (setting [7]), 1.9(±0.5) %; in assay [1] (setting [8]) it was 3.8(±1.7) %. The “Inhibition … (ISG, %)” value in assay [1] (setting [9]) is recorded as 5.7(±0.5) %; in assay [1] (setting [10]) it was 17.0(±0.5) %; in assay [1] (setting [11]), 28.3(±0.5) %; in assay [1] (setting [12]), 34.0(±1.3) %; in assay [1] (setting [13]) it was 52.8(±1.3) %. For the same compound, the “Inhibition of the root growth … (IRG, %)” value in assay [2] (setting [3]) is 11.6%; in assay [2] (setting [4]), 11.9(±3.3) %; in assay [2] (setting [5]) it was 21.7(±2.8) %; in assay [2] (setting [6]), 32.7(±2.9) %; in assay [2] (setting [7]) it was 49.1(±2.5) %; in assay [2] (setting [8]), 54.8(±2.6) %. For the same compound, the “Inhibition of the root growth … (IRG, %)” value is 62.9(±2.4) % in assay [2] (setting [9]); 73.3(±1.5) % in assay [2] (setting [10]); 77.6(±1.7) % in assay [2] (setting [11]); 82.0(±1.0) % in assay [2] (setting [12]); 89.9(±0.74) % in assay [2] (setting [13]).
